Patent publication US9006174B2 (priority 2009, dated 2015)
Ends that are not written are not given here.

System: hRBCs
Details: human erythrocytes, 1 h at 37° C.

Row | Sequence | Toxicity Haemolysis (hRBCs)
1 | RFGRFLRKIRRFRGKVTITIQGSARF [CMAP26 (P14→G)] | − (<25% dead cells)
2 | RFGRFLRKIRRFRLKVTITIQGSARF [CMAP26 (P14→L)] | − (<25% dead cells)
3 | RFGRFLRKIRRLRPK [CMAP(1-15) (F12→L), RFGRFLRKIRRLRPK] | − (<25% dead cells)
4 | RFGRFLRKIRRWRPK [CMAP(1-15) (F12→W), RFGRFLRKIRRWRPK] | −− (<5% dead cells)
